PubChem BioAssay (NCI)
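Here, GI50 denotes the concentration required for 50% inhibition of growth. At the TGI there is no net growth.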

Tests used:
Test in all cases: inhibition of tumour cell growth, NCI panel, 384-well format
786-0 renal = tested on: 786-0 renal
A498 renal = tested on: A498 renal
A549 NSCLC = tested on: A549 NSCLC
ACHN renal = tested on: ACHN renal
BT-549 breast = tested on: BT-549 breast
CAKI-1 renal = tested on: CAKI-1 renal
COLO 205 colon = tested on: COLO 205 colon
DU-145 prostate = tested on: DU-145 prostate
EKVX NSCLC = tested on: EKVX NSCLC
HCC-2998 colon = tested on: HCC-2998 colon
HCT-116 colon = tested on: HCT-116 colon
HCT-15 colon = tested on: HCT-15 colon
HL-60(TB) leukemia = tested on: HL-60(TB) leukemia
HOP-62 NSCLC = tested on: HOP-62 NSCLC
HOP-92 NSCLC = tested on: HOP-92 NSCLC
HS 578T breast = tested on: HS 578T breast
HT29 colon = tested on: HT29 colon
IGROV1 ovarian = tested on: IGROV1 ovarian
KM12 colon = tested on: KM12 colon
LOX IMVI melanoma = tested on: LOX IMVI melanoma
M14 melanoma = tested on: M14 melanoma
MALME-3M melanoma = tested on: MALME-3M melanoma
MCF7 breast = tested on: MCF7 breast
MDA-MB-231 breast = tested on: MDA-MB-231 breast
MDA-MB-435 melanoma = tested on: MDA-MB-435 melanoma
MDA-MB-468 breast = tested on: MDA-MB-468 breast
MOLT-4 leukemia = tested on: MOLT-4 leukemia
NCI-H226 lung = tested on: NCI-H226 lung
NCI-H23 lung = tested on: NCI-H23 lung
NCI-H322M lung = tested on: NCI-H322M lung
NCI-H460 NSCLC = tested on: NCI-H460 NSCLC
NCI-H522 lung = tested on: NCI-H522 lung
NCI/ADR-RES ovarian = tested on: NCI/ADR-RES ovarian
OVCAR-3 ovarian = tested on: OVCAR-3 ovarian
OVCAR-4 ovarian = tested on: OVCAR-4 ovarian
OVCAR-5 ovarian = tested on: OVCAR-5 ovarian
OVCAR-8 ovarian = tested on: OVCAR-8 ovarian
PC-3 prostate = tested on: PC-3 prostate
RPMI-8226 leukemia = tested on: RPMI-8226 leukemia
SF-268 CNS = tested on: SF-268 CNS
SF-295 CNS = tested on: SF-295 CNS
SF-539 CNS = tested on: SF-539 CNS
SK-MEL-28 melanoma = tested on: SK-MEL-28 melanoma
SK-MEL-5 melanoma = tested on: SK-MEL-5 melanoma
SK-OV-3 ovarian = tested on: SK-OV-3 ovarian
SN12C renal = tested on: SN12C renal
SNB-19 CNS = tested on: SNB-19 CNS
SR leukemia = tested on: SR leukemia
SW-620 colon = tested on: SW-620 colon
T-47D breast = tested on: T-47D breast
TK-10 renal = tested on: TK-10 renal
U251 glioblastoma = tested on: U251 glioblastoma
UACC-257 melanoma = tested on: UACC-257 melanoma
UACC-62 melanoma = tested on: UACC-62 melanoma
UO-31 renal = tested on: UO-31 renal
CCRF-CEM leukemia = tested on: CCRF-CEM leukemia
RXF 393 renal = tested on: RXF 393 renal
SNB-75 CNS = tested on: SNB-75 CNS
K-562 leukemia = tested on: K-562 leukemia

## Cc1nc(Nc2ncc(C(=O)Nc3c(C)cccc3Cl)s2)cc(N2CCN(CCO)CC2)n1
786-0 renal
  GI50: 0.0357 µM
  TGI: 2.5 µM
A498 renal
  GI50: 0.251 µM
  TGI: 2.75 µM
A549 NSCLC
  GI50: 0.0275 µM
  TGI: 12.6 µM
ACHN renal
  GI50: 0.0172 µM
  TGI: 0.234 µM
BT-549 breast
  GI50: 0.0327 µM
  TGI: 1.26 µM
CAKI-1 renal
  GI50: 0.0277 µM
  TGI: 0.225 µM
COLO 205 colon
  GI50: 3.8 µM
  TGI: 10.7 µM
DU-145 prostate
  GI50: 0.227 µM
  TGI: 4.85 µM
EKVX NSCLC
  GI50: 0.724 µM
  TGI: 15.6 µM
HCC-2998 colon
  GI50: 5.08 µM
  TGI: 16.8 µM
HCT-116 colon
  GI50: 4.83 µM
  TGI: 17.4 µM
HCT-15 colon
  GI50: 1.03 µM
  TGI: 13.7 µM
HL-60(TB) leukemia
  GI50: 7.23 µM
  TGI: 18.1 µM
HOP-62 NSCLC
  GI50: 0.0648 µM
  TGI: 12.2 µM
HOP-92 NSCLC
  GI50: 0.0372 µM
  TGI: 2.04 µM
HS 578T breast
  GI50: 0.0129 µM
  TGI: 0.0494 µM
HT29 colon
  GI50: 2.02 µM
  TGI: 13.3 µM
IGROV1 ovarian
  TGI: 0.0375 µM
KM12 colon
  GI50: 7.3 µM
  TGI: 19.8 µM
LOX IMVI melanoma
  GI50: 0.0277 µM
  TGI: 1.25 µM
M14 melanoma
  GI50: 2.86 µM
  TGI: 8.23 µM
MALME-3M melanoma
  GI50: 3.19 µM
  TGI: 8.82 µM
MCF7 breast
  GI50: 10 µM
  TGI: 21.7 µM
MDA-MB-231 breast
  GI50: 0.0251 µM
  TGI: 1.04 µM
MDA-MB-435 melanoma
  GI50: 9.25 µM
  TGI: 20.8 µM
MDA-MB-468 breast
  GI50: 0.695 µM
  TGI: 4.51 µM
MOLT-4 leukemia
  GI50: 1 µM
  TGI: 3 µM
NCI-H226 lung
  GI50: 0.0247 µM
  TGI: 2.64 µM
NCI-H23 lung
  GI50: 2.59 µM
  TGI: 10.7 µM
NCI-H322M lung
  GI50: 0.0381 µM
  TGI: 0.973 µM
NCI-H460 NSCLC
  GI50: 9.52 µM
  TGI: 21.4 µM
NCI-H522 lung
  GI50: 0.0135 µM
  TGI: 0.098 µM
NCI/ADR-RES ovarian
  GI50: 1.87 µM
  TGI: 14.7 µM
OVCAR-3 ovarian
  GI50: 0.0151 µM
  TGI: 0.419 µM
OVCAR-4 ovarian
  GI50: 0.0588 µM
  TGI: 0.85 µM
OVCAR-5 ovarian
  GI50: 0.041 µM
  TGI: 6.27 µM
OVCAR-8 ovarian
  GI50: 0.0643 µM
  TGI: 2.97 µM
PC-3 prostate
  GI50: 3.12 µM
  TGI: 17.5 µM
RPMI-8226 leukemia
  GI50: 2.11 µM
  TGI: 5.5 µM
SF-268 CNS
  GI50: 0.0303 µM
  TGI: 0.128 µM
SF-295 CNS
  GI50: 2.59 µM
  TGI: 18.9 µM
SF-539 CNS
  GI50: 0.0482 µM
  TGI: 1.64 µM
SK-MEL-28 melanoma
  GI50: 5.62 µM
  TGI: 18.7 µM
SK-MEL-5 melanoma
  GI50: 4.26 µM
  TGI: 15.1 µM
SK-OV-3 ovarian
  GI50: 0.0496 µM
  TGI: 3.14 µM
SN12C renal
  GI50: 0.0139 µM
  TGI: 3.39 µM
SNB-19 CNS
  GI50: 8.69 µM
  TGI: 21.7 µM
SR leukemia
  GI50: 5.44 µM
  TGI: 8.78 µM
SW-620 colon
  GI50: 15.1 µM
  TGI: 28.6 µM
T-47D breast
  GI50: 0.176 µM
  TGI: 15.1 µM
TK-10 renal
  GI50: 0.0259 µM
  TGI: 0.164 µM
U251 glioblastoma
  GI50: 4.2 µM
  TGI: 17.8 µM
UACC-257 melanoma
  GI50: 5.53 µM
  TGI: 18.2 µM
UACC-62 melanoma
  GI50: 2.05 µM
  TGI: 10.1 µM
UO-31 renal
  GI50: 0.057 µM
  TGI: 0.84 µM

## CC(O)c1cc(C(=O)N[C@@H](C)Cn2ccc(-c3ccc(C#N)c(Cl)c3)n2)n[nH]1 (stereo not given in full)
786-0 renal
  GI50: > 100 µM
  TGI: > 100 µM
A498 renal
  GI50: > 100 µM
  TGI: > 100 µM
A549 NSCLC
  GI50: > 93.4 µM
  TGI: > 100 µM
ACHN renal
  GI50: > 46.4 µM
  TGI: > 69.6 µM
BT-549 breast
  GI50: 36.7 µM
  TGI: 98.6 µM
CAKI-1 renal
  GI50: > 88.3 µM
  TGI: > 100 µM
CCRF-CEM leukemia
  GI50: 31.5 µM
  TGI: > 100 µM
COLO 205 colon
  GI50: > 82.6 µM
  TGI: > 100 µM
DU-145 prostate
  GI50: > 100 µM
  TGI: > 100 µM
EKVX NSCLC
  GI50: 34.8 µM
  TGI: > 100 µM
HCC-2998 colon
  GI50: > 100 µM
  TGI: > 100 µM
HCT-116 colon
  GI50: 33.8 µM
  TGI: > 100 µM
HCT-15 colon
  GI50: 59 µM
  TGI: > 100 µM
HL-60(TB) leukemia
  GI50: 28.9 µM
  TGI: > 61.9 µM
HOP-62 NSCLC
  GI50: > 67.6 µM
  TGI: > 100 µM
HOP-92 NSCLC
  GI50: > 100 µM
  TGI: > 100 µM
HS 578T breast
  GI50: 65.6 µM
  TGI: > 100 µM
HT29 colon
  GI50: > 100 µM
  TGI: > 100 µM
IGROV1 ovarian
  GI50: > 100 µM
  TGI: > 100 µM
KM12 colon
  GI50: > 92.4 µM
  TGI: > 100 µM
LOX IMVI melanoma
  GI50: 40.2 µM
  TGI: > 100 µM
M14 melanoma
  GI50: > 83.3 µM
  TGI: > 100 µM
MALME-3M melanoma
  GI50: > 56.3 µM
  TGI: > 100 µM
MCF7 breast
  GI50: 57.7 µM
  TGI: > 100 µM
MDA-MB-231 breast
  GI50: 42.1 µM
  TGI: > 100 µM
MDA-MB-435 melanoma
  GI50: > 74.1 µM
  TGI: > 100 µM
MDA-MB-468 breast
  GI50: 12 µM
  TGI: 42 µM
MOLT-4 leukemia
  GI50: 15.2 µM
  TGI: 29 µM
NCI-H226 lung
  GI50: 35.6 µM
  TGI: > 75.9 µM
NCI-H23 lung
  GI50: 27.2 µM
  TGI: > 100 µM
NCI-H322M lung
  GI50: 34.9 µM
  TGI: > 100 µM
NCI-H460 NSCLC
  GI50: > 76.4 µM
  TGI: > 100 µM
NCI-H522 lung
  GI50: 43.3 µM
  TGI: > 100 µM
NCI/ADR-RES ovarian
  GI50: > 100 µM
  TGI: > 100 µM
OVCAR-3 ovarian
  GI50: > 94.2 µM
  TGI: > 100 µM
OVCAR-4 ovarian
  GI50: 31.3 µM
  TGI: > 100 µM
OVCAR-5 ovarian
  GI50: > 100 µM
  TGI: > 100 µM
OVCAR-8 ovarian
  GI50: 35.3 µM
  TGI: 96.9 µM
PC-3 prostate
  GI50: > 100 µM
  TGI: > 100 µM
RPMI-8226 leukemia
  GI50: 21.9 µM
  TGI: > 70.8 µM
RXF 393 renal
  GI50: 22.9 µM
  TGI: 69.6 µM
SF-268 CNS
  GI50: > 76.2 µM
  TGI: > 100 µM
SF-295 CNS
  GI50: > 57.4 µM
  TGI: > 100 µM
SF-539 CNS
  GI50: > 100 µM
  TGI: > 100 µM
SK-MEL-28 melanoma
  GI50: > 100 µM
  TGI: > 100 µM
SK-MEL-5 melanoma
  GI50: 17.5 µM
  TGI: 36.5 µM
SK-OV-3 ovarian
  GI50: > 64.3 µM
  TGI: > 100 µM
SN12C renal
  GI50: > 100 µM
  TGI: > 100 µM
SNB-19 CNS
  GI50: > 100 µM
  TGI: > 100 µM
SNB-75 CNS
  GI50: > 74.4 µM
  TGI: > 100 µM
SR leukemia
  GI50: 15.9 µM
  TGI: 33.8 µM
SW-620 colon
  GI50: > 100 µM
  TGI: > 100 µM
T-47D breast
  GI50: 17.8 µM
  TGI: 59.4 µM
TK-10 renal
  GI50: > 100 µM
  TGI: > 100 µM
U251 glioblastoma
  GI50: > 100 µM
  TGI: > 100 µM
UACC-257 melanoma
  GI50: > 80.4 µM
  TGI: > 100 µM
UACC-62 melanoma
  GI50: > 80.4 µM
  TGI: > 100 µM
UO-31 renal
  GI50: > 45.2 µM
  TGI: > 63 µM

## CN(C)/N=N/c1nc[nH]c1C(N)=O
CAKI-1 renal
  GI50: 34.7 µM
CCRF-CEM leukemia
  GI50: 45.5 µM
DU-145 prostate
  GI50: 83.8 µM
HCT-116 colon
  GI50: 66.3 µM
HL-60(TB) leukemia
  GI50: 6.42 µM
K-562 leukemia
  GI50: 44.6 µM
LOX IMVI melanoma
  GI50: 29.2 µM
MALME-3M melanoma
  GI50: 79.5 µM
MDA-MB-468 breast
  GI50: 30.4 µM
MOLT-4 leukemia
  GI50: 6.9 µM
  TGI: 21.7 µM
OVCAR-8 ovarian
  GI50: 69.9 µM
RPMI-8226 leukemia
  GI50: 18.3 µM
SK-OV-3 ovarian
  GI50: 95.3 µM
SW-620 colon
  GI50: 97.4 µM
